Test results published in publication PMC8955265, “Systematic Discovery of FBXW7-Binding Phosphodegrons Highlights Mitogen-Activated Protein Kinases as Important Regulators of Intracellular Protein Levels” (International Journal of Molecular Sciences, 2022).
Each block holds one molecule with its values, some of them ahead of it. Where a SMILES comes first, the peptide text is derived from it. [ ]: non-standard residue; d: D form. The star is where a group is joined. 5FAM = O=C1OC2(c3ccc(O)cc3Oc3cc(O)ccc32)c2ccc(C(=O)*)cc21; pT = C[C@@H](OP(=O)(O)O)[C@H](N)C(=O)O; pS = N[C@@H](COP(=O)(O)O)C(=O)O; Cbz = O=C(OCc1ccccc1)*

Experiments:
[1] = system: FBXW7-mediated protein degradation; assay: Ratiometric DsRed/EGFP protein level assay of full-length proteins with kinase inhibitors; type: cell-based, HEK293T cells; details: for ZMIZ1 level: full-length ZMIZ1, HEK293T + FBXW7, inhibitor 2 µM
Procedure: (§1) HEK293T cells (purchased from ATCC, CRL-3216) were cultured in Dulbecco’s Modified Eagle’s Medium (DMEM, Gibco, Waltham, MA, USA) containing 10% FBS (Gibco, Cat# 10500064), 100 µg/mL Pen/strep (Sigma, P0781) and Amphotericin B (Thermo Fisher, 15290026) at 37 °C in an atmosphere of 5% CO2. Approximately 90,000 cells were plated in 24-well Greiner bio-one plates (#662-160). The next day cells were transfected with Lipofectamine 3000 reagent (L3000001, Invitrogen, Waltham, MA, USA) using the Opti-MEM reduced serum media (Gibco, 31985062). The transfection media was changed with complete DMEM after 4–6 h of transfection. Cells in a 24-well plate were transfected with 500 ng of plasmid DNA in total, for co-transfection each plasmid construct was used in 250 ng amount. For western blots, cells were washed in ice-cold PBS and harvested in SDS loading buffer and then subjected to SDS-PAGE. The samples were then transferred to nitrocellulose membrane. Primary antibodies were the following: Anti-V5 (Invitrogen; 1:5000 dilution), anti-FLAG (Sigma #F1804; 1:5000 dilution), anti-cMyc (#2276, Cell signaling, Danvers, MA, USA) 1:1000 dilution) and anti-tubulin (Sigma #T6199; 1:50,000 dilution). Secondary antibodies (IRDye® 800CW Goat anti-Mouse IgG, LiCOR #926-32210 and IRDye® 680CW Goat anti-Mouse IgG, LiCOR #926-68070; 1:5000 dilution) were used according to the recommendation of the manufacturer and blots were analyzed by Odyssey CLx imaging system (Li-Cor). Kinase inhibitors were used in 2 µM concentration added 6 h before protein level measurements: GSK3—CHR99021 (#S2924, Selleckchem, Munich, Germany), ERK1/2—SCH772984 (Selleckchem, #S7101), p38—SB202190 (Sigma-Aldrich, #S7067), and JNK—JNK-IN-8 (Selleckchem, #S4901). MG132 proteosomal inhibitor (Merck, #474790) was used in 10 µM concentration and cycloheximide (# 239763, Calbiochem, San Diego, CA, USA) was used in 100 µg/mL concentration. HEK293T cells were washed with 500 μL ice-cold PBS twice and gently collected using a pipette 48 h after transfection. The suspension was centrifuged at 500× g for 10 min at 4 °C. After centrifugation, the cell pellet was resuspended in 110 µL ice cold PBS and the fluorescence signal for EGFP (Excitation 485 nm; Emission 515 nm) and DsRed (Excitation 550 nm; Emission 580 nm) was measured in Corning 384-well microplate (#4514) using a plate reader (CytationTM 3, BioTek Instruments, Winooski, VT, USA).

FBXW7 = assay: Ratiometric EGFP/DsRed protein degradation assay with degron probes; type: cell-based, human; details: HEK293T + FBXW7, MG132, EGFP/DsRed ratio
From the text: In order to be able to test putative phosphodegron motifs, a ratiometric protein level monitoring method was adapted to monitor MAPK controlled FBXW7 mediated protein degradation. Briefly, intact DsRed and an EGFP-chimera were expressed in HEK293T cells in equal amounts from an expression plasmid, giving an EGFP/DsRed fluorescence ratio close to one under non-degrading conditions. EGFP was fused to a probe comprised of a putative degron sequence and a known MAPK binding docking motif. EGFP signal is expected to diminish faster than DsRed in cells with more FBXW7 if the probe responded to degradation.
We started out from an intentionally general consensus motif of FBXW7 degrons, inspired by the liberal [TS]P..[TS]P pattern defined for yeast Cdc4 substrates, and scanned the human disordered part of the proteome using SliMSearch4 (the disorder score cut-off was 0.4 and flank length was 5). In all, 22 motifs from this list were subjectively chosen and tested in the ratiometric degradation assay giving only 5 positives (see Supplementary Table S1). Based on the results of this first round, by taking information both from the identified positives and negatives, the consensus motif definition was narrowed to requiring a proline at P + 2, but motifs were allowed to have a phospho-mimicking residue (D or E) at P + 4 because it had been formerly reported that this second phosphorylatable residue may be replaced by aspartate or glutamate. […] In the third round, hydrophobic amino acids were more strictly required at positions −1/−2 and P − 1/2/3 positions were further narrowed and P + 4 position was relaxed based on the identified negatives, which gave a higher hit rate (4 out of 6). This third round gave functional motifs at a good rate, but the used motif definition was very restrictive compared to other known motifs. Finally, in the fourth round, we gave up using an optimal consensus and established the positional relaxation model. […] Hits on this final, most predictive list are presented in Supplementary Table S2. All entries were filtered for motif locations by UniProt annotations, discarding all enzyme-inaccessible (e.g., extracellular) instances. Motifs that had any overlapping PFAM domain indicated were manually assessed using the AlphaFold EBI website. Out of these, only motifs that were highly accessible and located outside of confidently predicted folded domains were kept. We also added kinase consensus compatibility to every motif and the number of experiments where phosphorylation could be detected from PhosphoSitePlus.
The chimera degron module was ordered from IDT as gene Block (gBlock). It consisted of a coiled coil dimerization motif (GCN4: EELLSKNYHLENEVARLKK) to increase sensitivity by allowing multivalent binding, a MAPK binding docking motif (AAKG2: KKNASQKRRSLRVHIPDL), and the CycECO degron motif. The motifs were separated by Gly-Ser-Asn linkers and the gBlock was designed so that the motifs could be easily changed by using unique sets of restriction endonucleases. The gBlock was sub-cloned into the Gateway pENTR4 entry plasmid (Thermo Fisher, Waltham, MA, USA) using restriction enzymes (SalI and NotI). The pENTR4-chimera and the destination plasmid (MSCV-CMV-DsRed-IRES-EGFP-DEST from Addgene; 41941), [28]) were subjected to gateway cloning using LR clonase II enzyme (Invitrogen) to obtain the first DsRed-EGFP-chimera DNA construct containing the cycECO degron. Oligonucleotides corresponding to different degron sequences and docking motifs were ligated into the DsRed-EGFP-chimera DNA construct. The list of all the oligonucleotides used for cloning is provided in Supplementary Table S3. pcDNA3-FLAG-FBXW7α was a kind gift from Michael Pagano (New York University). The FBXW7 arginine mutant (Arg mutant: R465C; R479Q; R505L) was created using two-step PCR and cloned into the pcDNA3-FLAG plasmid. […]

[2] = system: FBXW7-mediated protein degradation; assay: Western blot of protein levels in FBXW7-transfected cells; type: cell-based, HEK293T cells
Procedure: as §1, with “concentration.” for “concentration. HEK293T cells were washed with 500 μL ice-cold PBS twice and gently collected using a pipette 48 h after transfection. The suspension was centrifuged at 500× g for 10 min at 4 °C. After centrifugation, the cell pellet was resuspended in 110 µL ice cold PBS and the fluorescence signal for EGFP (Excitation 485 nm; Emission 515 nm) and DsRed (Excitation 550 nm; Emission 580 nm) was measured in Corning 384-well microplate (#4514) using a plate reader (CytationTM 3, BioTek Instruments, Winooski, VT, USA).”

Skp1-FBXW7 complex = biological target: T1, Skp1-FBXW7 complex (Homo sapiens, UniProt P63208+Q969H0); assay: Fluorescence polarization direct titration of labeled CCNE peptide; type: binding; details: FP direct titration, 50 nM CF-labeled CCNE peptide with increasing Skp1-FBXW7; 20 mM Tris pH 8.0, 100 mM NaCl, 0.05% Brij35P, 2 mM TCEP; value printed in plot
T1 construct: human FBXW7 (263-707) with an N-terminal hexa-histidine (His6) tag; His6 (N, cleaved yes); made in house; host or cells: E. coli Rosetta (DE3)
Procedure: Truncated Skp1 (1-149) and human FBXW7 (263-707) with an N-terminal hexa-histidine (His6) tag were cloned into a bicistronic plasmid (pMG950) and were co-expressed in E. coli Rosetta (DE3) strain. The Skp1-FBXW7 complex was purified using affinity, anion exchange, and gel filtration chromatography. The DNA expression plasmid was transformed into E. coli Rosetta (DE3) strain and grown in LB until OD600 = 0.5, protein expression was induced with 100 µM isopropyl-β-d-1-thigalatopyaranoside (IPTG) overnight at 18 °C. The cell pellet was lysed, and the recombinant protein was purified using Ni-NTA agarose beads. Before further purification the His6-tag was removed by using the TEV protease and then the protein complex was further purified using anion exchange chromatography twice, first with a Resource Q and then with a Mono Q column (pH = 8). Finally, the complex was subjected to size-exclusion chromatography in 20 mM Tris, pH = 8, 150 mM NaCl, and 1 mM DTT using a Superdex200 10/300 column (GE Healthcare, Chicago, IL, USA). The eluted fractions were pooled together and were supplemented with 10% glycerol and 2 mM TCEP before concentration and storage. […]

T1 sequence (Q969H0 263-707): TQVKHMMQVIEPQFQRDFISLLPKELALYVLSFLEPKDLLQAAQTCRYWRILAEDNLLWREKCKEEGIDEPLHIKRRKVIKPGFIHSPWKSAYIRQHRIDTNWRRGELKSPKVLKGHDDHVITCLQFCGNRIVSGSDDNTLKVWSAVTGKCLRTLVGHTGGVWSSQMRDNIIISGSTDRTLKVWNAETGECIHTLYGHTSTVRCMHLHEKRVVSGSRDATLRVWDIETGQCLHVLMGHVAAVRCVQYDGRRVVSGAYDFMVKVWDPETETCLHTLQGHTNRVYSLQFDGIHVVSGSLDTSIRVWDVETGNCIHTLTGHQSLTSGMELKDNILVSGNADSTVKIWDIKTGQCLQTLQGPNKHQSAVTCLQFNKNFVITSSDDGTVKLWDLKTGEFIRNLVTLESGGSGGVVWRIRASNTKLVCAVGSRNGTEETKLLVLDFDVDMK
T1 sequence (P63208 1-149 partner limits assumed): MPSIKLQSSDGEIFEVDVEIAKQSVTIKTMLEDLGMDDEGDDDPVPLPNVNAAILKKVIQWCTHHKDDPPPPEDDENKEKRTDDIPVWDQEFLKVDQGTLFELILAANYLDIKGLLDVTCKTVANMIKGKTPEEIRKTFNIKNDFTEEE

effect on FBXW7-mediated degradation of full-length constructs ([1]; HEK293T, inhibitor 2 µM added 6 h before DsRed/EGFP measurement): no effect
Structure (SMILES): Cc1cnc(-c2cnc(NCCNc3ccc(C#N)cn3)nc2-c2ccc(Cl)cc2Cl)[nH]1 [CHR99021]

effect on ARID4B level ([1]; full-length ARID4B, HEK293T + FBXW7, inhibitor 2 µM, 6 h): significant effect | ZMIZ1 level ([1]; 6 h): affected
Structure (SMILES): Cc1cc(NC(=O)c2cccc(NC(=O)/C=C/CN(C)C)c2)ccc1Nc1nccc(-c2cccnc2)n1 [JNK-IN-8]

Structure (SMILES): CC(C)C[C@@H](C=O)NC(=O)[C@H](CC(C)C)NC(=O)[C@H](CC(C)C)NC(=O)OCc1ccccc1 [MG132] (Cbz-Leu-Leu-Leu-aldehyde)
CycEco-EGFP probe degradation (FBXW7): blocked | protein level of the CycECO-V5 probe ([2]; HEK293T transfected with FBXW7 plasmid, MG132 10 µM, anti-V5 western blot): counteracted the effect of FBXW7 expression | protein levels of full-length constructs in the presence of FBXW7 ([2]; KLF4, ETV5, ARID4B, CDT1, ZMIZ1, JAZF1 V5-tagged constructs, HEK293T, MG132 10 µM, western blot): counteracted the effect of FBXW7

degradation of JAZF1 ([1]; full-length JAZF1, HEK293T + FBXW7, inhibitor 2 µM, 6 h): lower | ZMIZ1 level ([1]; 6 h): affected
Structure (SMILES): Oc1ccc(-c2nc(-c3ccncc3)c(-c3ccc(F)cc3)[nH]2)cc1 [SB202190]
FBXW7-mediated degradation of the JAZF1-SUZ12 fusion construct ([2]; HEK293T co-transfected with Fusion WT and FBXW7, inhibitor 2 µM, anti-Myc western blot): counteracted

ZMIZ1 level ([1]; 6 h): affected
Structure (SMILES): O=C(Nc1ccc2[nH]nc(-c3ccncc3)c2c1)[C@@H]1CCN(CC(=O)N2CCN(c3ccc(-c4ncccn4)cc3)CC2)C1 [SCH772984]

Kd (Skp1-FBXW7 complex): 2.8 ± 1.6 nM
Structure (SMILES): CC(C)C[C@H](NC(=O)CNC(=O)[C@H](CO)NC(=O)[C@@H]1CCCN1C(=O)c1ccc2c(c1)C(=O)OC21c2ccc(O)cc2Oc2cc(O)ccc21)C(=O)N[C@@H](CC(C)C)C(=O)N[C@H](C(=O)N1CCC[C@H]1C(=O)N1CCC[C@H]1C(=O)N[C@@H](CCC(N)=O)C(=O)N[C@@H](COP(=O)(O)O)C(=O)NCC(=O)N[C@@H](CCCCN)C(=O)N[C@@H](CCCCN)C(=O)N[C@@H](CCC(N)=O)C(=O)O)[C@@H](C)OP(=O)(O)O [fluorescently labeled CCNE peptide] (5FAM-PSGLL[pT]PPQ[pS]GKKQ-OH)
